# Patent US20150335678A1, “METHOD OF ACTIVATING STEM CELLS IN AN ANIMAL AND THE USE OF CHLORINE DIOXIDE FOR PREPARING MEDICINES FOR ACTIVATING STEM CELLS IN AN ANIMAL” (priority 2012, published 2015)
# Tests used:
# [1] = tested on: androgenetic alopecia (hair-loss patients); assay: Androgenetic alopecia patients, solution smeared on alopecia area (Example 1); settings: for increased ratio of hair density vs before administration, Region 1 (center of crown) / increased ratio of hair density vs before administration, Region 2 (middle of crown and forehead) / increased ratio of hair density vs before administration, Region 3 (on the forehead) / increased ratio of hair density vs before administration, Region 4 (both sides of forehead): 5.1 cm2 circle
# Procedure: Drug preparation: The first solution was a mixed solution made of sodium chlorite with the concentration of 7.47% and sodium chloride with the concentration of 1.59% with deionized water; the second solution was made of citric acid with the concentration of 16.7% with deionized water.
# Dosage and administration: Same volume of solutions were taken out from different vessels with different volumes and put into the suitable glass or plastic cups prepared. Allow the solution to mix for 3-5 minutes and then filter the solution with 0.22 μm filter membrane of double-deck. The alopecia area was smeared with the solution by swab, waiting for 1-2 hours before cleaning the head, once a day. The medicine was taken according to the course of treatment. The first course of treatment was 15-25 days, the second course of treatment began after 2-5 months of drug withdrawal. The administration days were 10-15 days from the second course of treatment, and the next course of treatment began after 2-5 months of drug withdrawal.
# The subjects consisted of 42 male hair-loss patients and one patient (22-68 years old.) They were willing to use the drug (hereinafter referred to as administration). See Table 1 for specific information.
# To select four circular regions (5.1 cm^2) with diameter of 2.54 cm in the following regions: the center of crown (in front of the whirl on the head, region 1), the middle of crown and forehead (region2), on the forehead (region 3), both sides of forehead (region 4), and calculate the amount of hair through digital photographs respectively on the 10th day (t1), the first month (t2), second month (t3) after administration of the first course of treatment, and the second month (t4) after administration of the second course of treatment, as well as the second month (t5) after administration of the third course of treatment. Then the increased ratios of hair density in different regions were worked out by comparing the amount of hair before administration. (See Table 2)
# [2] = tested on: VE cadherin-positive mononuclear cells; assay: VE cadherin-positive mononuclear cells in peripheral blood of lower limb DVT patients, flow cytometry; type: in vivo, human; settings: before administration 0.44 ± 0.70, diluted solution 10 ml/body/day femoral artery puncture, 14 days
# Text: The subjects consisted of 14 male and 6 female lower limb DVT patients with the unilateral limb suffer from the illness, aged from 59 to 76 years old (average age: 67.2 years old). The purpose of the clinical test was explained to all subjects and their consent was obtained before conducting the clinical test.
# The first solution was a mixed solution made of sodium chlorite with the concentration of 7.47% and sodium chloride with the concentration of 1.59% with deionized water; the second solution was made of citric acid with the concentration of 16.7% with deionized water. Same volume of solutions were taken out from different vessels with different volumes and mixed up. […]
# Five ml of peripheral blood was collected from the median cubital vein of the forearm of each patient using low molecular weight heparin anticoagulant before administration (before initial administration) and on day 7 and 14 after administration, and the collected blood was immediately stored at 4° C. and measured within 6 hours after collection. […]
# VE Cadherin-positive mononuclear cells were isolated by immunofluorescent stain using flow cytometry. […] Next, VE cadherin-positive mononuclear cells were isolated and counted by flow cytometry. The ratio (%) of VE cadherin-positive mononuclear cells among the mononuclear cells was calculated according to the following formula. […]
# [3] = tested on: skin and eye mucous membrane; settings: content of chlorine dioxide 9.7˜11.4 mg/L; 48 h; cited from earlier work
# [4] = tested on: APTT, PT and TT (blood coagulation and fibrinolysis systems); assay: Side effects in lower limb DVT patients: APTT, PT, TT and pain
# Procedure: Chlorine dioxide solution was administered to the patients through the contralateral femoral artery puncture (sick side) for 14 consecutive days, a dose of 10 ml/body/day. Before injection, use 2 ml-5 ml lidocaine of 2% to perform infiltration anesthesia at puncture point.
# [5] = 2-6 days after administration, n=43, NaClO2 7.47% + citric acid 16.7% 1:1, topical once a day
# [6] = 3-5 days after administration, n=43, NaClO2 7.47%/NaCl 1.59% + citric acid 16.7% mixed 1:1, smeared on alopecia area once a day
# [7] = 15-25 days after administration, n=43, NaClO2 7.47% + citric acid 16.7% 1:1, topical once a day
# [8] = T1: 10th day, first course, n=43, NaClO2 7.47% + citric acid 16.7% topical
# [9] = T2: first month after administration of first course, n=43, NaClO2 7.47% + citric acid 16.7% topical
# [10] = T3: second month after administration of first course, n=43, NaClO2 7.47% + citric acid 16.7% topical
# [11] = T4: second month after administration of second course, n=43, NaClO2 7.47% + citric acid 16.7% topical
# [12] = T5: second month after administration of third course, n=43, NaClO2 7.47% + citric acid 16.7% topical
# [13] = inventor's observation, chlorine dioxide solution applied every day
# [14] = medicine stopped for 2-5 months after a course of treatment, n=43, NaClO2 7.47% + citric acid 16.7% 1:1, topical once a day
structure (smiles),measurement,setting,value
"[O][Cl+][O-] [chlorine dioxide solution, chlorine dioxide]",Effective rate: hair in the affected area fell off quickly,[1]; [5],100%
same,No. effective patients: hair in the affected area fell off quickly,[1]; [5],43
same,"Effective rate: beard like new hair regrew, seen by naked eyes",[1]; [6],98%
same,"No. effective patients: beard like new hair regrew, seen by naked eyes",[1]; [6],42
same,Effective rate: new hair grew persistently,[1]; [7],93%
same,No. effective patients: new hair grew persistently,[1]; [7],40
same,"increased ratio of hair density vs before administration, Region 1 (center of crown)","[1]; T1: 10th day, first course, digital photographs, n=43, NaClO2 7.47% + citric acid 16.7% topical once a day",123%
same,"increased ratio of hair density vs before administration, Region 2 (middle of crown and forehead)",[1]; [8],117%
same,"increased ratio of hair density vs before administration, Region 3 (on the forehead)",[1]; [8],133%
same,"increased ratio of hair density vs before administration, Region 4 (both sides of forehead)",[1]; [8],102%
same,"increased ratio of hair density vs before administration, Region 1 (center of crown)",[1]; [9],137%
same,"increased ratio of hair density vs before administration, Region 2 (middle of crown and forehead)",[1]; [9],129%
same,"increased ratio of hair density vs before administration, Region 3 (on the forehead)",[1]; [9],134%
same,"increased ratio of hair density vs before administration, Region 4 (both sides of forehead)",[1]; [9],157%
same,"increased ratio of hair density vs before administration, Region 1 (center of crown)",[1]; [10],154%
same,"increased ratio of hair density vs before administration, Region 2 (middle of crown and forehead)",[1]; [10],142%
same,"increased ratio of hair density vs before administration, Region 3 (on the forehead)",[1]; [10],153%
same,"increased ratio of hair density vs before administration, Region 4 (both sides of forehead)",[1]; [10],163%
same,"increased ratio of hair density vs before administration, Region 1 (center of crown)",[1]; [11],196%
same,"increased ratio of hair density vs before administration, Region 2 (middle of crown and forehead)",[1]; [11],185%
same,"increased ratio of hair density vs before administration, Region 3 (on the forehead)",[1]; [11],201%
same,"increased ratio of hair density vs before administration, Region 4 (both sides of forehead)",[1]; [11],260%
same,"increased ratio of hair density vs before administration, Region 1 (center of crown)",[1]; [12],354%
same,"increased ratio of hair density vs before administration, Region 2 (middle of crown and forehead)",[1]; [12],402%
same,"increased ratio of hair density vs before administration, Region 3 (on the forehead)",[1]; [12],396%
same,"increased ratio of hair density vs before administration, Region 4 (both sides of forehead)",[1]; [12],433%
same,"time until new hair could grow, most of patients","[1]; after administration, topical once a day",2 to 3 days
same,duration of stabbing pain after application,"[1]; human, in vivo",15 to 30 min
same,time until new hair grows in alopecia area with hair,[1]; [13],third to the fifth day
same,time until new hair grows in alopecia area without hair,[1]; [13],about 20 days
same,"Effective rate: hair recovered by one level, judged by naked eyes",[1]; [14],81%
same,"No. effective patients: hair recovered by one level, judged by naked eyes",[1]; [14],35
same,skin reaction in the administered area,"[1]; when administered for three days, red spot like solidified bleeding wound",micro wound was produced
same,"VE Cadherin-Positive Mononuclear Cells (ratio among mononuclear cells, mean±SD)","[2]; Day 7 after administration, n=20",1.5 ± 1.11 %
same,"VE Cadherin-Positive Mononuclear Cells (ratio among mononuclear cells, mean±SD)","[2]; Day 14 after administration, n=15",1.91 ± 1.65 %
same,stimulation score to skin and eye mucous membrane,[3],0
same,duration of stabbing pain after injection without anesthetic,"[4]; almost all the patients, day one after administration",30 min
same,"APTT, PT and TT, before vs after administration","[4]; before, day 7 and day 14 after administration, lower limb DVT patients, 10 ml/body/day femoral artery puncture",no significant differences
same,side effects by administration,"[4]; lower limb DVT patients, 10 ml/body/day femoral artery puncture, 14 days",no occurrence of side effects
